Calls of active or inactive are those of the source. The rule behind the calls is not given here.
Target: Signal transducer and activator of transcription 3 (Homo sapiens) (UniProt P40763)
Experiment: Inhibition of STAT3 in human HeLa cells at 5 uM after 24 hrs by luciferase reporter gene assay
Assay type: cell-based

Chain of Signal transducer and activator of transcription 3 (Homo sapiens) (P40763 whole entry): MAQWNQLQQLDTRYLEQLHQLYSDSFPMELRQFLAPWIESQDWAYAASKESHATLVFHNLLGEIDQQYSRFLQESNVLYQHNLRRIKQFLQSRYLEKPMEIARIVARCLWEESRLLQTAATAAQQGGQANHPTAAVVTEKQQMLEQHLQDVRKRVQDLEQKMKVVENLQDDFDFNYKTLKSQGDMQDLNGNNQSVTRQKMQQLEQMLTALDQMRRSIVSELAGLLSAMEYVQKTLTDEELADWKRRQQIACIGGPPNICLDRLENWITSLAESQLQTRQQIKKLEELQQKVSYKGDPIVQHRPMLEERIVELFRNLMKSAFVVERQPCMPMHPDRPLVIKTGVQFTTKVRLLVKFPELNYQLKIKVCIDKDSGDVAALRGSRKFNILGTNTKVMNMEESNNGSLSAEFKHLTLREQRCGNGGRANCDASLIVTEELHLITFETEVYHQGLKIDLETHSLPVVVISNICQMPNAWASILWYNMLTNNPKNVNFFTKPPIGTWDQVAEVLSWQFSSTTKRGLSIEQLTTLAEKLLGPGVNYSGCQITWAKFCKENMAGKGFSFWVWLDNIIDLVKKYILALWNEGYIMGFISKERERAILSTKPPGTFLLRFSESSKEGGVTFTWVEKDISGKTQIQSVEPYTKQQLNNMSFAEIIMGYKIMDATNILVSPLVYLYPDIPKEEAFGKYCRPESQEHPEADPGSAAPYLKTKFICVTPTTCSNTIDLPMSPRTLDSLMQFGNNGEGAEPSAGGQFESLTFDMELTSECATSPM

inhibition: inactive
Structure (SMILES): CCOC(=O)c1c(CSc2ccccc2)n(C)c2cc(Br)c(O)c(CN(C)C)c12
